One molecule from US11419876B2, “Mirtazapine as a pre-shipping inhibitor of bovine respiratory disease” (Iowa State University Research Foundation, Inc., priority 2019, dated 2022) can be followed below.

The test relates to BRD. The experiment in a line: Pre-shipment mirtazapine treatment for BRD prevention at the feedlot. It counts as in vivo, ranch heifer calves. The procedure:
An initial study was performed to confirm BRD prevention at the feedlot using a pre-shipment treatment comprising mirtazapine. A total of 24 ranch heifer calves that were recently weaned (mixed breeds, approximately 350 lbs, 6 months old) were randomly assigned to two different treatment groups. One group was fed mirtazapine in a standard starter feed at 5 mg/kg/day as a pre-shipment treatment. The treatment dosage was extrapolated from feline dosing. After one week, calves were shipped from southern Missouri to Iowa. For the next […], calves were monitored for BRD which was ascribed to any animal showing respiratory signs (i.e. coughing, runny nose or eyes, labored or rapid breathing) plus a rectal temperature >104° F. BRD(+) calves were then treated with florfenicol+flunixin. Calves requiring a second treatment received ceftiofur plus tulathromycin, while the third treatment consisted of enrofloxacin, if needed. At the end of the study calves were sold as seedstock and were kept out of the food chain.
The efficacy of the mirtazapine as a pre-shipment treatment for preventing BRD was assessed by various clinical parameters, as shown in Table 1 and FIG. 1.
The % morbidity equals the % of calves that developed BRD in the first six weeks. The % mortality equals the percent of BRD(+) calves that died of the disease. The % retreats equals the % of BRD(+) calves that required >2 treatments for BRD once developed. The data are compared to Control calves that were not fed mirtazapine prior to shipping to a feedlot (“None”).

The mark [1] stands for this setting: fed in starter feed at 5 mg/kg/day for one week pre-shipment, BRD(+) calves.

As for `CN1CCN2c3ncccc3Cc3ccccc3C2C1` (stereo not drawn) [Mirtazapine, 1,2,3,4,10,14b-hexahydro-2-methyl-pyrazino[2,1-a]pyrido[2,3-c] benzazepine], the “% Morbidity (% of calves that developed BRD)” value (fed in starter feed at 5 mg/kg/day for one week pre-shipment, % of calves that developed BRD in the first six weeks) is reported as 42%. Further, under setting [1], the “% Mortality (percent of BRD(+) calves that died of the disease)” value was found to be 0% and the “% Retreats (% of BRD(+) calves that required >2 treatments for BRD)” value came out at 11%. Also, under “fed in starter feed at 5 mg/kg/day for one week pre-shipment, after shipping to feedlot”, the “Avg. days to onset BRD” value is listed as 7.3 days. For the same molecule, the “Avg. Rectal Temp at BRD” value (fed in starter feed at 5 mg/kg/day for one week pre-shipment, at clinical presentation with BRD) is 104.2 degrees F. Moreover, for the setting “fed to calves for one week prior to shipping, versus control calves not fed mirtazapine”, the “Effect on morbidity, mortality and severity of BRD (in words)” value is “reduces the morbidity, mortality, and severity”.
